The record followed here is patent publication US20250332096A1, “BEVERAGE FORMULATION AND METHOD OF PROMOTING CELLULAR HYDRATION BY ENHANCING INTRACELLULAR PERMEATION” (Eastpond Laboratories Limited, priority 2024, published 2025).

Data set [1] in a line: Conductivity of test solutions. Type of data set: physicochemical. The note with it: purified water. The procedure:
(§1) 1:1 mol/mol stoichiometry complexes were prepared for the experiment. Nicotinic acid/alpha-CD complex was prepared by dissolving 11.22 g nicotinic acid and 98.63 g alpha-CD (89.66 g on dry basis) in 700 ml purified water. Nicotinamide/alpha-CD complex was prepared by dissolving 5.57 g nicotinamide and 49.3 g alpha-CD (44.4 g on dry basis) in 350 ml purified water and L-arginine/alpha-CD complex was prepared by dissolving 15.18 g L-arginine and 94.26 g alpha-CD (85.69 g on dry basis) in 700 ml purified water. Further, for all the three complexes, the liquid was frozen in dry ice bath and lyophilized. The dry lyophilizate was ground and sieved.
(§2) Clarity, pH, conductivity, density, viscosity, turbidity, surface tension and osmolality were determined in solutions prepared with purified water. […]

Data set [2] can be described thus: Osmolality of test solutions. It counts as physicochemical. Conditions: purified water. The procedure: as §1, §2
Data set [3] can be described thus: Density measurements of test solutions. It counts as physicochemical. Conditions: Tap water. The procedure:
The current study further manifests the density measurements in a cyclodextrin concentration dependent manner.
Water samples used were bottled water and tap water; wherein the tap water comprises the following impurities and properties: Free active chlorine (0.18 mg/1), Chloride (24 mg/1), Iron (6 μg/1), Manganese (2 μg/1), Nitrate (9 mg/1), Nitrite (<0.03 mg/1), Ammonium (<0.04 mg/1), Hardness of water (122 mg/l CaO), Conductivity (442 μS/cm) and pH 8. Purified water was produced by removal of dissolved ions by Merck/Millipore Synergy® Water Purification System at Cyclolab. The water quality produced Type 1 water (18.2 MΩ·cm at 25° C. ultrapure water) from pretreated water.
as §1, §2
However, it may not be established exactly which ionic species (Mg2+, Ca2+, Na+) causes this perturbation.

In data set [4] the test system is C. elegans. The experiment in a line: C. elegans lifespan Test A (observations carried out earlier). It counts as in vivo. The note with it: day 15, 0.1%, 50 worms per group. The procedure:
C. elegans study performed for the present disclosure is a follow-up and repetition of the observations carried out earlier (referred as Test A here). The results of the current C. elegans study (Test B) were recorded with higher number of animals compared to the Test A (50 worms per treated groups versus 130 worms per groups). Nematodes were maintained and propagated on Nematode Growth Medium—(NGM) containing plates and fed with Escherichia coli OP50 bacteria. The C. elegans strain used in this study is Bristol (N2) as wild-type.

A short description of the next data set: pH of test solutions. Type of data set: physicochemical. The note with it: purified water. The procedure: as §1, §2
A short description of data set [5]: Viscosity of test solutions. Conditions: purified water. Type of data set: physicochemical. The procedure: as §1
Clarity, pH, conductivity, density, viscosity, turbidity, surface tension and osmolality were determined in solutions prepared with purified water.

The subject of data set [6] is C. elegans. Briefly: C. elegans longevity in hydration modified water (Example 5). It counts as in vivo. The note with it: for Animals alive, % of initial: 0.1% w/w in nutritive media, USA I water. How it is done:
C. elegans nematodes were grown in petri-type dishes containing normal nutrient liquid media prepared alternatively with USA I water (described in Example 2) lacking any further additive component (control) or the same water supplemented with a parent α-, β-, or γ-cyclodextrin, and/or a bioactive agent, as an active component of cellular hydration. Fifty ±3 worms were transferred to each dish. Each condition was repeated in triplicate. Experiments were repeated for USA II and BP I waters described in Example 2.
• A. Addition of parent α-, β- and γ-cyclodextrins. • B. Addition of L-arginine and nicotinamide. • C. Addition of inclusion complexes of cyclodextrins with L-arginine and nicotinamide.

SMILES strings stand for the structures.

As for `OC[C@H]1O[C@@H]2O[C@H]3[C@H](O)[C@@H](O)[C@@H](O[C@H]4[C@H](O)[C@@H](O)[C@@H](O[C@H]5[C@H](O)[C@@H](O)[C@@H](O[C@H]6[C@H](O)[C@@H](O)[C@@H](O[C@H]7[C@H](O)[C@@H](O)[C@@H](O[C@H]1[C@H](O)[C@H]2O)O[C@@H]7CO)O[C@@H]6CO)O[C@@H]5CO)O[C@@H]4CO)O[C@@H]3CO` [Alpha Cyclodextrin, α-cyclodextrin], the Conductivity in data set [1] (0.05%) stood at 35.3 μS · cm^−1; in data set [1] (0.10%) it was 39.0 μS · cm^−1. Also, the Osmolality stood at 0 mOsm/kg in data set [2] (0.05%), 2 mOsm/kg in data set [2] (0.10%) and 18 mOsm/kg in data set [2] (2.00%). The Density (at 22 C.) worked out at 0.9992 ± 0.007 g/cm³ in data set [3] (0.05%), 0.9994 ± 0.004 g/cm³ in data set [3] (0.10%), 1.002 ± 0.007 g/cm³ in data set [3] (1.00%) and 1.009 ± 0.005 g/cm³ in data set [3] (2.00%). Further, the “Fraction of worms alive” value in the data set on C. elegans [4] was determined as 25%. The pH in the data set “pH of test solutions” (0.05%) came out at 6.20; in the data set “pH of test solutions” (0.10%) it was 6.36; in the data set “pH of test solutions” (1.00%) it was 6.55; in the data set “pH of test solutions” (2.00%), 6.70. In addition, the “Viscosity (25 C.)” value came out at 0.91 cP in data set [5] (0.05%), 0.92 cP in data set [5] (0.10%), 0.97 cP in data set [5] (1.00%) and 1.06 cP in data set [5] (2.00%). Also, the “number of animals surviving to old ages” value in the data set on C. elegans [6] (after day 15, 0.1% w/w) is “significantly increased”. The “Animals alive, % of initial” value in the data set on C. elegans [6] (life span 10 days) is 100 % of initial; in the data set with C. elegans [6] (life span 15 days) it was 20 % of initial; in the data set with C. elegans [6] (life span 18 days), 2 % of initial.
